Laboratory results: patent publication US20090017103A1, “Antisense oligonucleotides for prevention of metastasis formation of cancer cells” (priority 2003, published 2009)
Where “and” joins values, the source holds several entries; their conditions need not be identical. Equal entries are not always repeated. Entries after “also recorded” stand apart in the source; their conditions may differ. Marks after values point to notes of the source that are not given here.

Legend:
[1] = tested on: MDA-MB-231 breast cancer cells; assay: Clonogenicity assay (colony formation); type: cell-based, human; details: for inhibition of colony formation (colony growth inhibition): single exposure; for reduction of colony counts: twofold exposure
Procedure, shortened: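 MDA-MB-231 cells given lipofectamine-complexed ASO (5, 10 or 20 μM, 12 h) and/or ErPC3 (10, 14, 20 μM, 24 h), singly or in sequential cycles, then grown 48-72 h. 5000 cells plated in methylcellulose/30% FBS; MTT-stained colonies (≥30 cells) counted after 5-7 days.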

MDA-MB-231^GFP cells [2] = assay: In vivo treatment with mini-osmotic pumps (osteolytic bone metastasis model);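 for Mean size of lesion: mean lesion size in relative units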;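 for Size of lesion (per animal): lesion size in relative units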; design: species or system nude rats; details: for X-ray scan of hind legs: lytic lesions (in words): FIG. 5-7; for T/C / Mean size of lesion / Size of lesion (per animal): mini-osmotic pumps; for T/C: vs NSO control; for T/C × 100: mean lesion size vs NSO control rats; for Incidence of metastasis: mini-osmotic pumps s.c., 7 mg/kg daily over four weeks
MDA-MB-231^GFP cells [3] = assay: In vivo model with pretreated MDA-MB-231^GFP cells (osteolytic bone metastasis); design: species or system nude rats; lesion size of the rat(s) that developed lytic metastasis, % of control / lesion sizes with respect to all animals of the group compared to untreated control / lesion size of individual animal compared to the untreated control / T/C % (mean lesion size compared to untreated control): concentration or dose not given beside the values; details: for T/C × 100: mean lesion size vs untreated control rats; for Incidence of metastasis: cells pretreated in vitro (10 μM);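 for Mean size of lesion: mean lesion size in relative units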

Question: Which results are given for “5′-CTAACTTAAAAAACAAAAGA-3′ (antisense CTAACTTAAAAAACAAAAGA; all phosphorothioate, sugars by position and methylation of C not given here) [ASO-OPN-4]”?
Answer: % Control ([1]; Exp. III a, repeated exposure 2 × 5 μM): 84%; Mean colony no. ([1]; Exp. III a, repeated exposure 2 × 5 μM, control 456): 381^6,8); % Control ([1]; Exp. III a, repeated exposure 2 × 10 μM): 51%; Mean colony no. ([1]; Exp. III a, repeated exposure 2 × 10 μM, control 456): 233^7,8); % Control ([1]; Exp. III a, repeated exposure 2 × 20 μM): 40%; Mean colony no. ([1]; Exp. III a, repeated exposure 2 × 20 μM, control 456): 181^7); % Control ([1]; Experiment I, single treatment, 5 μM): 85%; Mean colony no. ([1]; Experiment I, single treatment, 5 μM, control 778): 658^6); % Control ([1]; Experiment I, single treatment, 10 μM): 61%; Mean colony no. ([1]; Experiment I, single treatment, 10 μM, control 778): 475^7); % Control ([1]; Experiment I, single treatment, 20 μM): 53%; Mean colony no. ([1]; Experiment I, single treatment, 20 μM, control 778): 416; % Control ([1]; Experiment III b, repeated exposure 2 × 5 μM): 63%; Mean colony no. ([1]; Experiment III b, repeated exposure 2 × 5 μM, control 517): 330^6,8); % Control ([1]; Experiment III b, repeated exposure 2 × 10 μM): 57%; Mean colony no. ([1]; Experiment III b, repeated exposure 2 × 10 μM, control 517): 296^7,8); % Control ([1]; Experiment III b, repeated exposure 2 × 20 μM): 50%; Mean colony no. ([1]; Experiment III b, repeated exposure 2 × 20 μM, control 517): 258^8); inhibition of colony formation (colony growth inhibition) ([1]; 5 μM): 15%; inhibition of colony formation (colony growth inhibition) ([1]; 10 μM): 39%; inhibition of colony formation (colony growth inhibition) ([1]; 20 μM, listed as ASO-OPN-04, 20 µM): 47% and 46%; reduction of colony counts ([1]; 5 μM): 16%; reduction of colony counts ([1]; 20 μM): 60%; repeated exposure compared with single exposure, colony formation (in words) ([1]; twofold vs single ASO exposure): more effective than single exposure; X-ray scan of hind legs: lytic lesions (in words) (MDA-MB-231^GFP cells [2]; eight weeks after tumor cell implantation): clear increase of lytic lesions in the tibia, however new formation of bone tissue at the edges of the lesions; X-ray scan of hind legs: lytic lesions (in words) (MDA-MB-231^GFP cells [2]; four weeks after tumor cell implantation, therapy from implantation): small lytic lesions in the tibia; X-ray scan of hind legs: lytic lesions (in words) (MDA-MB-231^GFP cells [2]; six weeks after tumor cell implantation): visible lytic lesions in the tibia; X-ray scan of hind legs: lytic lesions (in words) (MDA-MB-231^GFP cells [2]; ten weeks after tumor cell implantation): a decrease of the lesions is clearly visible; T/C (MDA-MB-231^GFP cells [2]; week 4): 58%; T/C (MDA-MB-231^GFP cells [2]; week 12): 26%; T/C × 100 (MDA-MB-231^GFP cells [2]; week 4): 58; Mean size of lesion (MDA-MB-231^GFP cells [2]; week 4): 19 R.U.; Size of lesion (per animal) (MDA-MB-231^GFP cells [2]; week 4): 20 R.U. and 41 R.U. and 0 R.U. (2×) and 34 R.U.; Incidence of metastasis (MDA-MB-231^GFP cells [2]; week 4, 7 mg/kg): three out of five and 3/5; T/C × 100 (MDA-MB-231^GFP cells [2]; week 6): 41; Mean size of lesion (MDA-MB-231^GFP cells [2]; week 6): 73 R.U.; Size of lesion (per animal) (MDA-MB-231^GFP cells [2]; week 6): 35 R.U. and 285 R.U. and 0 R.U. (2×) and 46 R.U.; Incidence of metastasis (MDA-MB-231^GFP cells [2]; week 6): 3/5; T/C × 100 (MDA-MB-231^GFP cells [2]; week 8): 45; Mean size of lesion (MDA-MB-231^GFP cells [2]; week 8): 124 R.U.; Size of lesion (per animal) (MDA-MB-231^GFP cells [2]; week 8): 117 R.U. and 415 R.U. and 27 R.U. and 60 R.U. and 0 R.U.; Incidence of metastasis (MDA-MB-231^GFP cells [2]; week 8): 4/5; T/C × 100 (MDA-MB-231^GFP cells [2]; week 9): 48; Mean size of lesion (MDA-MB-231^GFP cells [2]; week 9): 134 R.U.; Size of lesion (per animal) (MDA-MB-231^GFP cells [2]; week 9): 435 R.U. and 123 R.U. and 53 R.U. and 57 R.U. and 0 R.U.; Incidence of metastasis (MDA-MB-231^GFP cells [2]; week 9): 4/5; T/C × 100 (MDA-MB-231^GFP cells [2]; week 10): 29; Mean size of lesion (MDA-MB-231^GFP cells [2]; week 10): 124 R.U.; Size of lesion (per animal) (MDA-MB-231^GFP cells [2]; week 10): 74 R.U. and 67 R.U. and 45 R.U. and 0 R.U.; Incidence of metastasis (MDA-MB-231^GFP cells [2]; week 10): 4/5; T/C × 100 (MDA-MB-231^GFP cells [2]; week 12): 26; Mean size of lesion (MDA-MB-231^GFP cells [2]; week 12): 112 R.U.; Size of lesion (per animal) (MDA-MB-231^GFP cells [2]; week 12): 31 R.U. (2×) and 64 R.U. and 0 R.U.; Incidence of metastasis (MDA-MB-231^GFP cells [2]; week 12): 3; T/C × 100 (MDA-MB-231^GFP cells [3]; 4 weeks): 3.9; T/C × 100 (MDA-MB-231^GFP cells [3]; 6 weeks): 3.8; T/C × 100 (MDA-MB-231^GFP cells [3]; 8 weeks): 4.3; X-ray scan of hind legs: osteolytic lesions (in words) (MDA-MB-231^GFP cells [3]; FIG. 3 and FIG. 4, one rat each, cells pre-exposed, listed as ASO-OPN-04): no osteolysis; also recorded: no visible lytic lesions; rats in which formation of osteolytic metastasis was inhibited (no visible metastasis) (MDA-MB-231^GFP cells [3]; cells pre-exposed to ASO, observation period of eight weeks, listed as ASO-OPN-04): Three of four and 3 of 4; Incidence of metastasis (MDA-MB-231^GFP cells [3]; observation period 4 weeks): 1/4; Mean size of lesion (MDA-MB-231^GFP cells [3]; observation period 4 weeks, pretreated cells): 8.5 R.U.; Incidence of metastasis (MDA-MB-231^GFP cells [3]; observation period 6 weeks): 1/4; Mean size of lesion (MDA-MB-231^GFP cells [3]; observation period 6 weeks, pretreated cells): 11.5 R.U.; Incidence of metastasis (MDA-MB-231^GFP cells [3]; observation period 8 weeks): 1/4^4); Mean size of lesion (MDA-MB-231^GFP cells [3]; observation period 8 weeks, pretreated cells): 15 R.U.; T/C % (mean lesion size compared to untreated control) (MDA-MB-231^GFP cells [3]; pretreated cells, after eight weeks): 4.3%; lesion sizes with respect to all animals of the group compared to untreated control (MDA-MB-231^GFP cells [3]; pretreated cells, over observation period week 4 to week 8): about 4%; lesion sizes of the one metastasis-bearing animal compared to the control (MDA-MB-231^GFP cells [3]; pretreated cells, overall observation period (8 weeks)): about 16%; lesion size of the rat(s) that developed lytic metastasis (MDA-MB-231^GFP cells [3]; pretreated cells, week 4): 34 R.U.; lesion size of the rat(s) that developed lytic metastasis, % of control (MDA-MB-231^GFP cells [3]; pretreated cells, week 4, vs mean of the two control groups (197 R.U.)): 17%; lesion size of the rat(s) that developed lytic metastasis (MDA-MB-231^GFP cells [3]; pretreated cells, week 8): 60 R.U.; lesion size of the rat(s) that developed lytic metastasis, % of control (MDA-MB-231^GFP cells [3]; pretreated cells, week 8, vs mean of the two control groups (416 R.U.)): 17%
